In one assay the target is T1, H1299 cell pAxl (Homo sapiens, UniProt P30530).
T1 construct: endogenous in cells; host or cells: H1299
T1 sequence (P30530 26-894): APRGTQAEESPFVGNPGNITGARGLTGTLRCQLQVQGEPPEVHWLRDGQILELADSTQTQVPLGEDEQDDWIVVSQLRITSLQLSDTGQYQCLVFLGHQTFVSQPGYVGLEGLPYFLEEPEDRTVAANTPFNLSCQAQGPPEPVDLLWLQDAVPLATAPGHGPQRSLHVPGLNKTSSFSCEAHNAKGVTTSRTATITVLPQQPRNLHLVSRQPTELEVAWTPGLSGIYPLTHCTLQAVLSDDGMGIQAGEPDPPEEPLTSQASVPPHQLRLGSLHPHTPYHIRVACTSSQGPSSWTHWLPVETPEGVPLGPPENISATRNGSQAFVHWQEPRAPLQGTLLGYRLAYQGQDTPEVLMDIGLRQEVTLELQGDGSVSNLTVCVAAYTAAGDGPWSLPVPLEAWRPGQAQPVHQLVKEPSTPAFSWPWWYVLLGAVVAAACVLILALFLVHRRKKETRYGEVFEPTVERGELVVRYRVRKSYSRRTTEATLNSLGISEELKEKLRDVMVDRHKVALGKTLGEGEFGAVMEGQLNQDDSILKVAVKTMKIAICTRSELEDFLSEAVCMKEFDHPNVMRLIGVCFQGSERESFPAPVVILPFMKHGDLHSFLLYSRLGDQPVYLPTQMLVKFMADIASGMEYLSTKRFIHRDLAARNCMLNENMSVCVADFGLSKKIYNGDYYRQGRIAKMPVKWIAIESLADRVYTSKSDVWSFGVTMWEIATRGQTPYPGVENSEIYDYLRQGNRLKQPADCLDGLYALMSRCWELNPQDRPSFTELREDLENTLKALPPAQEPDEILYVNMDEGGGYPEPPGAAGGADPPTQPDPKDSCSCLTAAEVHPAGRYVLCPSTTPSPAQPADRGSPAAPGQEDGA
Nature of the assay: Inhibitory activity on cell pAxl (H1299 cells, hGAS6 stimulation, Western Blot). It is filed as cell-based. To be noted: hGAS6 200 ng/mL, tested at 1.1, 3.3, 10 and 30 nM, read-out: Inhibitory Activity on Cell pAx1, IC50. The method, then:
H1299 is a non-small cell lung cancer cell.
Test samples: the compounds of the present invention, having structures shown above.
Test instruments: protein electrophoresis apparatus (made by Bio Rad), membrane transfer apparatus (made by Bio Rad), exposure apparatus (made by Tanon), and CO2 cell incubator (made by Thermo).
H1299 cells were inoculated into a 6-well plate (containing 10% FBS 1640 medium, 5×10^5 cells per well) and adherently cultivated at 37° C. and 5% CO2 for 18 h. The cells were starved overnight, and compounds with different concentrations were added. The compounds had final concentrations of 1.1 nM, 3.3 nM, 10 nM and 30 nM, with DMSO having a final concentration of 1‰. There was a medium containing 10‰ DMSO in the negative control well. The cells were incubated at 37° C. and 5% CO2 for 60 min, and then hGAS6 (R&D, final concentration: 200 ng/mL) was added to each well. The cells were further incubated for 60 min, and then the total protein of the cells was extracted for Western Blot experiment. IC50 values were calculated with GraphPad 5.0 software, and the inhibitory activities of the compounds on cell pAxl were detected.
(In general: In western blotting, separated proteins are transferred to a membrane and probed.)

Another assay has as its target T2, Axl (h) (Homo sapiens, UniProt P30530).
T2 construct: purchased
T2 sequence (P30530 26-894): T1 sequence (P30530 26-894)
The assay can be described thus: Enzymatic activity assay, Axl (h) kinase, [γ-33P]-ATP. It is filed as biochemical. The following applies: 10 μM [γ-33P]-ATP, 40 min, room temperature; read-out: Inhibitory Activity on Ax1 (h), IC50. The method, then:
(§1) Test samples: the compounds of the present invention, having structures and preparation methods shown above.
(§2) (1) Preparation of Compound Stock Solutions
(§3) Compounds were each dissolved in 100% DMSO to prepare stock solutions with a maximum concentration of 500 μM.
(§4) (2) Preparation of Compound Working Solutions
(§5) The compound stock solutions were diluted to final concentrations of 500 μM, 150 μM, 50 μM, 15 μM, 5 μM, 1.5 μM, 0.5 μM, 0.15 μM and 0.05 μM to prepare compound working solutions (50×).
(3) Preparation of different enzymatic reaction solutions
Axl (h) enzyme was dissolved in a mixture of 8 mM MOPS (pH 7.0), 0.2 mM EDTA and 250 μM KKSRGDYMTMQIG to prepare an enzyme solution with a final concentration of 1.7 nM. An Mg/ATP mixture of 10 mM magnesium acetate and 10 μM [γ-^33P]-ATP was used to activate the enzymatic reaction.
(§6) The compound working solutions were added to a 384-well plate, with final concentrations of 10000 nM, 3000 nM, 1000 nM, 300 nM, 100 nM, 30 nM, 10 nM, 3 nM and 1 nM, respectively, and then different enzymatic reaction solutions prepared according to the above conditions were added. The reaction solutions were incubated at room temperature for 40 min, and then 0.5% phosphoric acid solutions were added to terminate the reaction. 10 μL of the reaction solution was added dropwise to P30 filter paper which was washed 4 times with a 0.425% phosphoric acid solution and once with methanol and then placed in a scintillation counter for detection. Gray analysis was performed on the results with Image J software, and IC50 values were calculated with GraphPad 5.0 software.

In the next assay the target is T3, LCK (h) (Homo sapiens, UniProt P06239).
T3 construct: purchased
Nature of the assay: Enzymatic activity assay, LCK (h) kinase, [γ-33P]-ATP. It is filed as biochemical. The following applies: 10 μM [γ-33P]-ATP, 40 min, room temperature; read-out: Inhibitory Activity on LCK (h) kinase, IC50. The protocol:
as §1
Preparation of Compound Stock Solutions:
as §3
Preparation of Compound Working Solutions:
as §5
Preparation of Different Enzymatic Reaction Solutions:
LCK (h) enzyme was dissolved in a mixture of 50 mM Tris (pH 7.5), 0.1 mM EGTA, 0.1 mM Na3VO4 and 250 μM KVEKIGEGTYGVVYK to prepare an enzyme solution with a final concentration of 45 nM. An Mg/ATP mixture of 10 mM magnesium acetate and 10 μM [γ-^33P]-ATP was used to activate the enzymatic reaction.
as §6

A further assay deals with T4, Ron (h) (Homo sapiens, UniProt Q04912).
T4 construct: purchased
The assay can be described thus: Enzymatic activity assay, Ron (h) kinase, [γ-33P]-ATP. It is filed as biochemical. The following applies: 10 μM [γ-33P]-ATP, 40 min, room temperature; read-out: Inhibitory Activity on Ron (h) kinase, IC50. The method, then: as §1, §2, §3, §4, §5
(3) Preparation of Different Enzymatic Reaction Solutions
Ron (h) enzyme was dissolved in a mixture of 8 mM MOPS (pH 7.0), 0.2 mM EDTA and 250 μM GGMEDIYFEFMGGKKK to prepare an enzyme solution with a final concentration of 40.4 nM. An Mg/ATP mixture of 10 mM magnesium acetate and 10 μM [γ-^33P]-ATP was used to activate the enzymatic reaction.
as §6

T3 sequence (P06239 whole entry): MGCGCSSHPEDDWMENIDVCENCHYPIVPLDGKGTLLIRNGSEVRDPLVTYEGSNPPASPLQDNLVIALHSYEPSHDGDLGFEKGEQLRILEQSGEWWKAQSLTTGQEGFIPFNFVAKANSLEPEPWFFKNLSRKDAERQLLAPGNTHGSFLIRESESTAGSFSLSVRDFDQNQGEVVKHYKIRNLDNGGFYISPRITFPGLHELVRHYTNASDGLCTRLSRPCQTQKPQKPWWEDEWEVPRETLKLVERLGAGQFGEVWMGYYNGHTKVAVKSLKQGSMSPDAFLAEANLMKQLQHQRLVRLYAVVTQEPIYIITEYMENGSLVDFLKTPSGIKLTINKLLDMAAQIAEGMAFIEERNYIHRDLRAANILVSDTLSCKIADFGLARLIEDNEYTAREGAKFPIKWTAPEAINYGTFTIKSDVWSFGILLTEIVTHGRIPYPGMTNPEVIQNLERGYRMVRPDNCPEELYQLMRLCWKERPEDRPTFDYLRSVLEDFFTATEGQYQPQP
T4 sequence (Q04912 25-1400): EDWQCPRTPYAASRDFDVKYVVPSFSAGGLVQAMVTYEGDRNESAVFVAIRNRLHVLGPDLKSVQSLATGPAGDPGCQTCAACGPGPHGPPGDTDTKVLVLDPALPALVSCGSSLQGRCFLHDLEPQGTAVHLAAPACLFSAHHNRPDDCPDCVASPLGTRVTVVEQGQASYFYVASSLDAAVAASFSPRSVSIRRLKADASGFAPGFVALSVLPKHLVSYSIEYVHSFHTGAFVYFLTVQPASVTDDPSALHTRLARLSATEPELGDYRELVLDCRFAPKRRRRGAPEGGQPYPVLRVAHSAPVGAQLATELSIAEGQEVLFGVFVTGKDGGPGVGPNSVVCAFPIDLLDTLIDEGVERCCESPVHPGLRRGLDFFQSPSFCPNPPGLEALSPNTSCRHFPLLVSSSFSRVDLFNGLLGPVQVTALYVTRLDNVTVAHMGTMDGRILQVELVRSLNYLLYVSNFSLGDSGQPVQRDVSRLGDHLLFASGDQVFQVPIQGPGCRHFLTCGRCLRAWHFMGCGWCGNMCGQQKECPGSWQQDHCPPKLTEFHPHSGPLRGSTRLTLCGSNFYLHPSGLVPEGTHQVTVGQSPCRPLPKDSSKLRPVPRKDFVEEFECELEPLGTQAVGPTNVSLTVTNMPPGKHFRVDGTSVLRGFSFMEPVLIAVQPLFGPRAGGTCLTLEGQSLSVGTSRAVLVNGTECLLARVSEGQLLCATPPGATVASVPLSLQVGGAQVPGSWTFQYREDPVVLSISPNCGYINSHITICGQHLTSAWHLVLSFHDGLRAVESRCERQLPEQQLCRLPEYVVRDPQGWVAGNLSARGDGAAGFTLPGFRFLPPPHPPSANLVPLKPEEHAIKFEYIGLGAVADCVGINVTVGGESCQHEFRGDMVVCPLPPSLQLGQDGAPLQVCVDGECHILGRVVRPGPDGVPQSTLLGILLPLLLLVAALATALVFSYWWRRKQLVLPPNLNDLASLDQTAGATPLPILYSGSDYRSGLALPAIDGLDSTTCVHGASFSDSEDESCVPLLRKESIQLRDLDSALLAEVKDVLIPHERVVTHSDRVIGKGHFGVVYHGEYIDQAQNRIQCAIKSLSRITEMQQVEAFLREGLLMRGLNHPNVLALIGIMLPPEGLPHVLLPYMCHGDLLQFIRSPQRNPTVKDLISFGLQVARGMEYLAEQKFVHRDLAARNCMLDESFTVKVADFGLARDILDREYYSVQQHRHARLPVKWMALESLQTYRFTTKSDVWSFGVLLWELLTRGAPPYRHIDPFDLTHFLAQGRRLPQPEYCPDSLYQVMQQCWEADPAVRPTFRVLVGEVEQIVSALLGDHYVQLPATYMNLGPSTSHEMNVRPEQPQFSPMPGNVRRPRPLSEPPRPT

As to `CC(C)n1cc(-c2ccc(F)cc2)c(=O)c(C(=O)Nc2ccc(Oc3cc4cnn(C)c4cc3-c3cn[nH]c3)cn2)n1` [Compound 1, 5-(4-fluorophenyl)-1-isopropyl-N-(5-((1-methyl-6-(1H-pyrazol-4-yl)-1H-indazol-5-yl)oxy)pyridin-2-yl)-4-oxo-1,4-dihydropyridazine-3-carboxamide], the half-inhibitory concentration (IC50) – broadly, the concentration that inhibits the measured activity by half – at H1299 cell pAxl was 1.1 nM.
As to `CC(C)n1cc(-c2ccc(F)cc2)c(=O)c(C(=O)Nc2cnc(Oc3ccnc(N)c3Cl)nc2)n1` [Compound 16, N-(2-((2-amino-3-chloropyridin-4-yl)oxy)pyrimidin-5-yl)-5-(4-fluorophenyl)-1-isopropyl-4-oxo-1,4-dihydropyridazine-3-carboxamide], the IC50 on Axl (h) came out at 16 nM; on LCK (h), 579 nM.
With `Nc1nccc(Oc2ncc(NC(=O)c3nn(C4CC4)cc(-c4ccc(F)cc4)c3=O)cn2)c1Cl` [Compound 20, N-(2-((2-amino-3-chloropyridin-4-yl)oxy)pyrimidin-5-yl)-1-cyclopropyl-5-(4-fluorophenyl)-4-oxo-1,4-dihydropyridazine-3-carboxamide], the half-maximal inhibitory concentration (IC50) at H1299 cell pAxl is 10 to 30 nM; at Axl (h) it was 17 nM; on LCK (h) it was 2250 nM.
On to `CC(C)n1cc(C(=O)Nc2ccc(Oc3ccnc(N)c3Cl)nc2)c(=O)c(-c2ccc(F)cc2)n1` [Compound 23, N-(6-((2-amino-3-chloropyridin-4-yl)oxy)pyridin-3-yl)-6-(4-fluorophenyl)-2-isopropyl-5-oxo-2,5-dihydropyridazine-4-carboxamide], for which the IC50 on Ron (h) is 92 nM; on Axl (h), 30 nM; on LCK (h), > 10000 nM.
Take `C=CCn1cc(-c2ccc(F)cc2)c(=O)c(C(=O)Nc2cnc(Oc3ccnc(N)c3Cl)nc2)n1` [Compound 40, 1-allyl-N-(2-((2-amino-3-chloropyridin-4-yl)oxy)pyrimidin-5-yl)-5-(4-fluorophenyl)-4-oxo-1,4-dihydropyridazine-3-carboxamide]: the values for the IC50 on Axl (h) and at LCK (h) were 13 nM and 1070 nM, respectively.

The record behind these values is patent publication US20220298146A1, “HETEROCYCLIC DERIVATIVE AND USE THEREOF” (Transthera Sciences (Nanjing), Inc., priority 2019, published 2022).
